Four molecules from patent US20070122395A1, “Genetic and pharmacological regulation of antidepressant-sensitive biogenic amine transporters through PKG/p38 map kinase” (Vanderbilt University, priority 2005, published 2007) can be followed below.

Several values for one entry are separate records, joined by “and”; a condition that tells them apart may be missing. Identical values can stand only once.

The test system of data set [1] is hSERT. Put plainly: in situ SERT phosphorylation in [32P]-prelabeled transfected HeLa cells. It counts as cell-based, human. The settings on record: 8BrcGMP 100 μM, 60 min.
Data set [2] has as its system hSERT variants Leu255Met, Ser293Phe, Pro339Leu, Leu362Met, Ile425Val. The experiment in a line: 5-HT transport regulation in transfected HeLa cells, responsive variants. In kind it is cell-based, human. Here is the method: (§1) Transfection and Transport Studies. HeLa cells, maintained at 37° C. in a 5% CO2 humidified incubator, were grown in complete medium (Dulbecco's Modified Eagle's Medium (DMEM, Invitrogen), 10% fetal bovine serum, 2 mM L-glutamine, 100 units/ml penicillin, and 100 μg/ml streptomycin).
(§2) Transport, Binding, Biotinylation and Phosphorylation Studies. […] To establish levels and biosynthetic progression of hSERT protein produced from mutant cDNAs, HeLa cells were plated in 6-well dishes at 500,000 cells per well and transfected 12 h later. Twenty four hours after transfection, whole cell detergent extracts were blotted for hSERT (mAb Technologies, Inc., 1:1000) using enhanced chemiluminescence (ECL, Amersham) detection.

For data set [3], the system named is hSERT variants that responded with uptake increases. The experiment in a line: [125I]RTI-55 surface binding to intact transfected HeLa cells, responsive variants. It counts as cell-based, human.
In data set [4] the target is T1, hSERT (Homo sapiens, UniProt P31645).
T1 construct: The full-length cDNA encoding hSERT in the mammalian expression vector pcDNA3.1; expressed in transfected cells; host or cells: HeLa
T1 sequence (P31645 whole entry): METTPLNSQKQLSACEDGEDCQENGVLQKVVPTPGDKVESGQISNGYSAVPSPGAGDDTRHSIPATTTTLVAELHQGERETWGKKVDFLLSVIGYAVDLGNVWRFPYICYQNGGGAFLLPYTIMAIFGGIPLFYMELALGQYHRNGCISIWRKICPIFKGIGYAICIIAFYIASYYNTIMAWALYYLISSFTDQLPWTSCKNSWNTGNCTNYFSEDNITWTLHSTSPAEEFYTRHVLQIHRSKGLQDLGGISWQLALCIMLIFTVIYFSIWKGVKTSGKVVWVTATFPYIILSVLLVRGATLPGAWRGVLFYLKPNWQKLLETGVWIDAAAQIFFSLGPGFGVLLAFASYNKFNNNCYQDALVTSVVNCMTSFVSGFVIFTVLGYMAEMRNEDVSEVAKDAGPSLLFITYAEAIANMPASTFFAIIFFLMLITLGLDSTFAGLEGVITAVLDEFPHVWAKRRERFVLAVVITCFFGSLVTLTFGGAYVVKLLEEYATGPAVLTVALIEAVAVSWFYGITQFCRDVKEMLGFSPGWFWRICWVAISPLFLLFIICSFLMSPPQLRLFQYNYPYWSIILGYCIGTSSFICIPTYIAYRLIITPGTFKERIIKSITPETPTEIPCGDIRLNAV
The experiment in a line: [3H]5-HT transport (SERT uptake) assay in transfected HeLa cells. It counts as cell-based. The method, then:
as §1, §2

The subject of data set [5] is five hSERT variants that failed to elicit uptake increases. Put plainly: [125I]RTI-55 surface binding to intact transfected HeLa cells, non-responsive variants. In kind it is cell-based, human. The settings on record: five non-responsive variants.
Data set [6] has as its system Ala56 homozygous lymphocyte lines. The experiment in a line: 5-HT uptake in genotyped lymphocyte lines. It counts as cell-based, human. The text has this: (§3) Genotyping and Lymphocyte Studies. Lymphocyte lines were derived from autistic pedigrees recruited by Susan E. Folstein (Johns Hopkins Univ), from the Autism Genetics Resource Exchange (AGRE) collection (www.agre.org/), and from the NIMH Human Genetics Initiative Repository (www.nimhgenetics.org/) at Rutgers University. DNA from lymphoblastoid cell lines was genotyped via TaqMan-based allelic discrimination, using an Applied Biosystems (Foster City, Calif.) Assay-by-Design and independently confirmed by PCR and direct sequence analysis. […] Lymphocyte were pelleted at 1500 rpm, 5 min and washed with KRH assay buffer. A total of 1×10^6 cells in triplicate were pre-warmed (37° C.) in a shaking water bath (10 min) in 12×75 polypropylene tubes in KRH buffer containing 100 μM pargyline and 100 μM ascorbic acid+/−modifiers.

The subject of data set [7] is Gly56Ala heterozygous lymphocytes. Put plainly: 5-HT uptake in genotyped lymphocyte lines. It counts as cell-based, human. The settings on record: Gly56Ala heterozygous cells.
Text: as §3

Data set [8] has as its system lymphocytes homozygous for the Gly variant (hSERT Gly56). Put plainly: 5-HT uptake in genotyped lymphocyte lines. In kind it is cell-based, human. The following applies: Gly56 homozygous lymphocytes.
Text: as §3

For another data set, the system named is hSERT Gly56Ala. Put plainly: in situ SERT phosphorylation in [32P]-prelabeled transfected HeLa cells. In kind it is cell-based, human.
Data set [9] has as its target T1, hSERT. Put plainly: [125I]RTI-55 binding to intact transfected HeLa cells (surface and total SERT). It counts as cell-based.
Data set [10] addresses T2, native SERT in RN46A cells (Rattus norvegicus, UniProt P31652).
T2 construct: derived from rat E13 raphenucleus, that expresses native SERT; endogenous in cells; host or cells: RN46A cells
Put plainly: [3H]5-HT transport assay in RN46A cells. In kind it is cell-based. The following applies: RN46A, 10 min treatment.

The test system of data set [11] is hSERT variants Thr4Ala, Gly56Ala, Glu215Lys, Lys605Asn, Pro621Ser. Put plainly: 5-HT transport regulation in transfected HeLa cells, non-responsive variants. In kind it is cell-based, human. Here is the method: as §1, §2
A further data set concerns human NET. Put plainly: monoamine uptake assay in transfected CHO cells. In kind it is cell-based. The following applies: CHO cells, 10-min anisomycin. The method, then:
Cell Culture and Transfection. […] CHO cells (ATCC, Manassas, Va.) were maintained at 37° C. in Dulbecco's MEM containing 10% fetal bovine serum, 1% L-Glu, 100 IU/ml penicillin, and 100 μg/ml streptomycin. For comparison of the response of monoamine transporters to p38 MAPK activation, CHO cells were transfected with cDNAs for hSERT, hDAT, or hNET (100 ng/well for a 24-well plate). Transfections of CHO cells were performed using TransIT-LT1 Transfection Reagent (Mirus, Madison, Wis.) according to the manufacturer's protocol (0.3 μl/well). hSERT, hDAT, or hNET cDNAs were preincubated with the reagent at ambient temperature for 30 min before being added to plated CHO cells. Cells were cultured for 24 h after transfection. The transfection mixture was removed just prior to assay.
CHO cells were plated at 20,000 cells/well 16-24 h before transfection, and the uptake assay was performed 24 h following the transfection. […] Medium was removed by aspiration, and cells were washed once with Krebs-Ringer HEPES (KRH) buffer containing 130 mM NaCl, 1.3 mM KCl, 2.2 mM CaCl2, 1.2 mM MgSO4, 1.2 mM KH2PO4, 1.8 g/liter glucose, 10 mM HEPES, pH 7.4. […] Cells were solubilized with 0.5 ml of Microscint 20 (PerkinElmer Life Sciences), and tritium-labeled monoamine accumulation was quantitated using a TopCount plate scintillation counter (PerkinElmer Life Sciences).

A further data set concerns mSERT. The experiment in a line: monoamine uptake assay in transfected CHO cells. It counts as cell-based, mouse. The settings on record: 10-min anisomycin. Here is the method:
(§4) Cell Culture and Transfection. […] Cells were cultured for 24 h after transfection. The transfection mixture was removed just prior to assay.

The next data set has as its system p38 MAPK. It counts as cell-based, rat. The method, then: Assays of p38 MAPK Activation. […] Medium was removed by aspiration, and cells were washed once with KRH buffer and then incubated in triplicate at 37° C. in KRH buffer with or without p38 MAPK activators for 5-10 min. Assay buffer was removed, and cells were immediately fixed with fresh 4% formaldehyde (Sigma) in PBS for 20 min at room temperature and washed four times with 1×PBS containing 0.1% Triton X-100 (Sigma) (5 min per wash) prior to 1 h of blocking with Odyssey blocking buffer (Li-Cor Biosciences, Lincoln, Nebr.). RBL-2H3 cells were subsequently probed with dual phosphorylated (Thr(P) and Tyr(P)) p38 MAPK polyclonal antibody (Cell Signaling; 1:400) in Odyssey blocking buffer with gentle mixing for 2 h at room temperature. Cells were then washed four times with 1×PBS containing 0.1% Tween 20 (Sigma) for 5 min. Bound antibody was detected with fluorescence-labeled secondary antibody-Alexa Fluor® 680 (avoiding exposure to light; 1:200 in Odyssey Blocking Buffer, Molecular Probes, Inc., Eugene, Oreg.) for 1 h. After four washes with 1×PBS, 0.1% Tween 20, the plate was scanned, and the captured image of the signal was processed and quantified with the Odyssey™ Infrared Imaging System (Li-Cor Biosciences). For UV radiation to activate p38 MAPK, plates seeded with cells were placed in a UV source (UV Stratalinker 1800, Stratagene, La Jolla, Calif.) that was preset to deliver 4×10^4 μJ/cm^2 at room temperature.

Another data set concerns hDAT. The experiment in a line: monoamine uptake assay in transfected CHO cells. In kind it is cell-based, human. The following applies: 10-min anisomycin. The method, then: as §4
Another data set concerns hSERT variants. Put plainly: 5-HT transport regulation by phorbol ester in transfected HeLa cells, all variants. The settings on record: each hSERT variant; slightly greater for Thr4Ala, Lys605Asn, Pro621Ser. In kind it is cell-based, human. The method, then: as §1, §2
The next data set concerns T3, NCCc1c[nH]c2ccc(O)cc12.
T3 construct: The full-length cDNA encoding hSERT in the mammalian expression vector pcDNA3.1; expressed in transfected cells; host or cells: HeLa
Put plainly: cells, lysate or membranes. It counts as cell-based, human. The settings on record: other: saturation kinetics of 5-HT transport, hSERT; pH 7.4; 37.0 °C.

T2 sequence (P31652 whole entry): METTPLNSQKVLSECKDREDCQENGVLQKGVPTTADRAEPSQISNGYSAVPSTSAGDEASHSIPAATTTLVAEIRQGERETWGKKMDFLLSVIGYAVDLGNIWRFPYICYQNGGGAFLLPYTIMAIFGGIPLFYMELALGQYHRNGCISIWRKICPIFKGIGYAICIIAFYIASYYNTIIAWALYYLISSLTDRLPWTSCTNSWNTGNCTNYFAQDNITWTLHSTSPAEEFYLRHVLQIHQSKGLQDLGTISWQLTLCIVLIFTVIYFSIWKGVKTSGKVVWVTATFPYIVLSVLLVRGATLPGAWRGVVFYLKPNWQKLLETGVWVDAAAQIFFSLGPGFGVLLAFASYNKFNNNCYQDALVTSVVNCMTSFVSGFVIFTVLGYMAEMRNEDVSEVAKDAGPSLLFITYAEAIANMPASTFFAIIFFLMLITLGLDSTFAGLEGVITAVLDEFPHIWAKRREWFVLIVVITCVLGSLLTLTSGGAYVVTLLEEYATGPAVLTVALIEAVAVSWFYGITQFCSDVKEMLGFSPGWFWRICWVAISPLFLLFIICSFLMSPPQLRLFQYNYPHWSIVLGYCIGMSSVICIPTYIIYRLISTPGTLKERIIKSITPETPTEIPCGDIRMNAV

For `Nc1nc2c(nc(Br)n2[C@@H]2O[C@@H]3COP(=O)(O)O[C@H]3[C@H]2O)c(=O)[nH]1` [8BrcGMP, 8-bromo-cGMP], the “elevation of basal SERT phosphorylation” value in the data set with hSERT [1] was roughly 80%. Besides, the “8BrcGMP effect on SERT activity” value in [2] is “dose-dependent, H8-sensitive stimulation of SERT activity comparable to hSERT”; in data set [11], “completely insensitive”. Moreover, the “[125I]RTI-55 surface binding after 8BrcGMP” value in data set [3] is “elevated [^125I]RTI-55 surface binding”; in data set [5] it was “reduction in [^125I]RTI-55 surface binding”; at hSERT [9] (100 μM 8BrcGMP, 5-HT 100 μM as displacer), “Parallel changes in [^125I]RTI-55 surface binding”. Also, the “stimulation of 5-HT transport activity (peak increase)” value on hSERT [4] is 50-70%. For the same molecule, the “sensitivity of 5-HT uptake to activator” value in data set [6] is reported as “lacked sensitivity”; in [7], “intermediate sensitivity”. In addition, the “stimulation of 5-HT transport” value in data set [8] is on record as “robust 8BrcGMP stimulation of 5-HT transport”; in [10], “increase in 5-HT transport”. For the same molecule, the “SERT phosphorylation response to 8BrcGMP” value in the data set with hSERT Gly56Ala is recorded as “could not be further phosphorylated”. Further, the “total [125I]RTI-55 binding” value on hSERT [9] (paroxetine as displacer, data not shown) is listed as “no effects on total binding”.

Turning to `COc1ccc(C[C@H]2NC[C@H](O)[C@H]2OC(C)=O)cc1` [anisomycin], the “anisomycin-modulated NE uptake (NET activity)” value in the data set on human NET is on record as “stimulated to a comparable degree as hSERT”. Further, the “anisomycin-modulated 5-HT uptake” value in the data set on mSERT was “SB203580-sensitive elevation in 5-HT uptake”. Moreover, in the data set on p38 MAPK (0.5 and 1.0 μm, 5 min), the “increase in phosphorylated p38 MAPK” value is reported as 2-3 fold. In addition, the “level of p38 MAPK phosphorylation stimulation” value with p38 MAPK (5 min treatment) was “comparable to stimulation achieved with 8-bromo-cGMP”. In the data set with p38 MAPK (data not shown), the “total p38 MAPK levels” value is given as “No changes”. Also, in the data set with hDAT, the “anisomycin-modulated DA uptake” value is given as “small, but significant SB203580-sensitive inhibition of DA uptake”.

`CCCCCCCCCCCCCC(=O)O[C@@H]1[C@@H](C)[C@@]2(O)[C@@H](C=C(CO)C[C@]3(O)C(=O)C(C)=C[C@@H]23)[C@@H]2C(C)(C)[C@]12OC(C)=O` [β-PMA]: the “downregulation of 5-HT transport following β-PMA, relative to hSERT” value in the data set on hSERT variants was “equal to or slightly greater”. The “downregulation of 5-HT transport activity” value at hSERT [4] is reported as roughly 40%.

Take hSERT (Homo sapiens): the Km in the data set on NCCc1c[nH]c2ccc(O)cc12 is 1.00+/−0.47 μM and 1.00+0.17 μM.
